Measured values reported in PubChem BioAssay AID1996.
In brackets after ≈: the same amount, converted by molar mass.

conditions: buffer; pH 7.4; 200.0 µM

Structure (SMILES) | solubility kinetic
CCOC(=O)CNc1cccc(C(F)(F)F)c1 | 8 µg/mL (≈ 32.4 µM)
CC(=O)CC1(OC(C)=O)C(=O)N(C)c2ccccc21 (configuration not stated) | > 39.2 µg/mL
CC1(C)C(=O)N(c2ccccc2)C(=O)c2ccccc21 | 25.8 µg/mL (≈ 97.2 µM)
O=C1[C@@H]2CSCN2C(=O)CN1Cc1c(F)cccc1Cl | > 47.2 µg/mL
CC(=O)Nc1ccc(C(=O)OCC(=O)N(C)C2CCCCC2)cc1 | 36 µg/mL (≈ 108 µM)
C=CCOc1c(Cl)cc(C(=S)N2CCCC2)cc1OCC | 5.7 µg/mL (≈ 17.5 µM)
CCCn1c(=O)c2[nH]cnc2n(-c2ccccc2C)c1=O | > 42.6 µg/mL
O=C(C1CC(=O)N(c2ccc(F)cc2)C1)N1CCCCC1 (configuration not stated) | 39 µg/mL (≈ 134 µM)
COC(=O)C(Cc1ccc(O)cc1)NC(=O)NC12CC3CC(CC(C3)C1)C2 (configuration not stated) | 27.5 µg/mL (≈ 73.8 µM)
Fc1ccccc1-n1cc(-c2ccccc2)[nH]c1=S | 6.2 µg/mL (≈ 22.9 µM)
O=C1OCCC1Sc1nnc(-c2ccco2)n1-c1ccccc1 (configuration not stated) | > 49.1 µg/mL
Nc1nccc(/C=C/c2ccc(Cl)cc2)n1 | 3.2 µg/mL (≈ 13.8 µM)
O=C1CN(C(=O)COc2ccc(Br)cc2)c2ccccc2N1 | 10.3 µg/mL (≈ 28.5 µM)
O=C(NC1CCCCCC1)c1cc2ccccc2oc1=O | 3.4 µg/mL (≈ 11.9 µM)
O=C(Nc1nc2ccccc2c(=O)s1)c1ccc(F)cc1Cl | 0.9 µg/mL (≈ 2.69 µM)
CCOc1ccc(C(C)NC(=O)Nc2ccc(F)cc2F)cc1 (configuration not stated) | 1.8 µg/mL (≈ 5.62 µM)
Cc1cc(NC(=O)c2cccc(Br)c2)no1 | 4.2 µg/mL (≈ 14.9 µM)
Cc1ccc(NC(=O)Cc2cc(C(=O)O)c3ccccc3n2)c(C)c1 | 2.5 µg/mL (≈ 7.48 µM)
CC(=O)Oc1cccc(Nc2ncnc3ccccc23)c1 | > 41.9 µg/mL
Cc1cc(C)nc(SCC(=O)c2ccc(F)cc2)n1 | 38.5 µg/mL (≈ 139 µM)
CCN1CCCC1Cn1cnc2c([nH]c3ccc(OC)cc32)c1=O (configuration not stated) | > 49 µg/mL
CCCC(=O)NC(c1ccc(C(C)C)cc1)c1ccc2cccnc2c1O (configuration not stated) | < 0.4 µg/mL
O=C(O)c1ccccc1N1C(=O)C2C3CCC(C3)C2C1=O (configuration not stated) | 39.5 µg/mL (≈ 138 µM)
COc1cc(NC(=O)C2CC3CCC2C3)c(OC)cc1Cl (configuration not stated) | 3.5 µg/mL (≈ 11.3 µM)
COc1ccccc1-c1noc(CCCC(=O)NC2CCCCC2)n1 | 48.5 µg/mL (≈ 141 µM)

Structure (SMILES) | solubility kinetic
CN1CCN(Cc2nnc(-c3ccccc3)o2)CC1 | > 38.7 µg/mL
Cc1cc(S(=O)(=O)NCc2ccco2)c(C)cc1Cl | > 45 µg/mL
CN1CCCN(Cc2cccc3ccccc23)CC1 | 24.7 µg/mL (≈ 97.1 µM)
COc1ccc2c(c1)c(C(C)=O)c(C)n2-c1ccc(C(C)=O)cc1 | < 0.7 µg/mL
O=C(O)CSc1c2c(nc3cc(C(=O)N4CCCC4)ccc13)CCCC2 | 48.6 µg/mL (≈ 131 µM)
COc1ccc(C)cc1NC1=NC(C)(C)CS1 | 36.1 µg/mL (≈ 144 µM)
CCN1CCN(C(=O)c2cc(=O)c3cc(C)ccc3o2)CC1 | > 45.1 µg/mL
CCN(C(=O)COc1ncnc2ccccc12)C1CCCCC1 | > 47 µg/mL
CC(OC(=O)c1ccccc1Oc1ccccc1)C(=O)NC1CC1 (configuration not stated) | > 48.8 µg/mL
CCSc1ccc(C(=O)NCC(=O)O)cc1 | > 35.9 µg/mL
Cc1ccc(C(=O)NC(C(=O)Nc2ccccc2)c2ccccc2)cc1 (configuration not stated) | 1 µg/mL (≈ 2.9 µM)
CC(Nc1c([N+](=O)[O-])c(=O)oc2ccccc12)c1ccccc1 (configuration not stated) | 8.8 µg/mL (≈ 28.4 µM)
COc1ccc(/C=C/C(=O)NC2CCS(=O)(=O)C2)cc1 (configuration not stated) | > 44.3 µg/mL
Cc1cc(C)cc(OCc2nc(-c3cccnc3)no2)c1 | 13.3 µg/mL (≈ 47.3 µM)
Cc1csc(NC(=O)c2cccc([N+](=O)[O-])c2C(=O)O)n1 | > 46.1 µg/mL
COc1ccc2[nH]cc(C(=O)CN3CCCC(C)(C)C3)c2c1 | > 45.1 µg/mL
CC(=O)N(CCC(c1ccco1)C(C)C)Cc1ccc(OC(C)C)cc1 (configuration not stated) | 19.5 µg/mL (≈ 54.5 µM)
Cn1c(Cc2ccccc2)nnc1SCC(=O)NCCc1ccccc1 | > 55 µg/mL
COCCNCC(=O)Nc1ccc(OC(F)(F)F)cc1.Cl | 48.8 µg/mL
Fc1ccc(N=c2ssnc2Cl)c(F)c1 | 7.5 µg/mL (≈ 28.3 µM)
COc1ccc2nc(SCC(=O)NC3CC3)c(C#N)cc2c1 | 0.8 µg/mL (≈ 2.55 µM)
O=C(CSc1n[nH]c(=O)n1C1CC1)Nc1ccccc1 | > 43.6 µg/mL
S=C(NCc1ccc2c(c1)OCO2)NC1CC1 | > 37.5 µg/mL
O=C(O)c1c(C(=O)O)c(-c2ccc(F)cc2)n2c1CCC2 | > 43.4 µg/mL
O=C(COC(=O)Cc1ccc(S(=O)(=O)N2CCOCC2)s1)Nc1ccc(OC(F)F)cc1 | 63.7 µg/mL (≈ 130 µM)

Structure (SMILES) | solubility kinetic
CC(C)(C)c1ccc(C(=O)C2CCCN(C3CCC3)C2)cc1 (configuration not stated) | 37.9 µg/mL (≈ 127 µM)
CC(C)n1cnc2c(oc3ccccc32)c1=O | 7 µg/mL (≈ 30.7 µM)
Cc1ccc(S(=O)(=O)NCc2cccnc2)c(C)c1 | > 41.5 µg/mL
O=C(COc1ccc(F)cc1Cl)NC1CCCCCC1 | 28.3 µg/mL (≈ 94.4 µM)
c1csc(-c2noc(CN3CCc4sccc4C3)n2)c1 | 27.3 µg/mL (≈ 90 µM)
Cc1cccc(C)c1OCCNC(=O)OCc1ccccc1 | 15.8 µg/mL (≈ 52.8 µM)
COc1ccc(Cl)cc1NC(=O)NCCN1CCCCC1 | > 46.8 µg/mL
O=C(Nc1ccccc1)Nc1cccc(-c2cn3cccnc3n2)c1 | 1 µg/mL (≈ 3.04 µM)
O=C(NCCCSc1ccccc1)c1cccnc1 | > 40.9 µg/mL
Cc1cc(C)cc(C(=O)Nc2ccncc2)c1 | > 33.9 µg/mL
Oc1ccc(/C=N/N2CCCCC2)c(O)c1O | > 35.4 µg/mL
Cc1ccc(NC(=S)c2ccc3ccccc3n2)c(C)c1 | < 0.3 µg/mL
Cc1cc(C)nc(Nc2ccccc2F)n1.Cl | 26.4 µg/mL
CCCN1C(=O)C(O)(c2c(C)[nH]c3ccccc23)c2ccccc21 (configuration not stated) | 26.3 µg/mL (≈ 82.1 µM)
Cc1cc(NC(=O)Cc2cc(F)cc(F)c2)no1 | 7.5 µg/mL (≈ 29.7 µM)
CC(C)c1ccc(/C=C/C(=O)N2CCOCC2)cc1 | 36.3 µg/mL (≈ 140 µM)
Nc1ccc(-c2nc3ccccc3o2)cc1 | 20.8 µg/mL (≈ 98.9 µM)
COCCCNC(=O)c1ccc(-c2csc(C)n2)cc1 | > 43.6 µg/mL
O=C(/C=C/c1ccccc1Cl)OCC(=O)N1CCCC1 | > 44.1 µg/mL
Cc1cc(=O)n2c(n1)NC(Nc1cccc(C)c1C)=NC2c1ccccc1 (configuration not stated) | 1.7 µg/mL (≈ 4.73 µM)
O=C(O)CCC(=O)Nc1cc(C(F)(F)F)cc(C(F)(F)F)c1 | 43.6 µg/mL (≈ 132 µM)
COc1ccc(COC(=O)CCc2c[nH]c3ccccc23)cc1F | 7.7 µg/mL (≈ 23.5 µM)
COc1ccc(NS(=O)(=O)c2ccc(N3CCCCC3)c(NC(=O)C(C)NC(N)=O)c2)cc1 (configuration not stated) | > 71.3 µg/mL
Cc1cc(S(=O)(=O)N2CCN(C(=O)c3ccco3)CC2)ccc1F | > 52.9 µg/mL
Cc1ccc(NC(=O)CN(C)C(=O)/C=C/c2ccc3c(c2)OCO3)cc1 | 6.8 µg/mL (≈ 19.3 µM)

Structure (SMILES) | solubility kinetic
N#Cc1ccc(-c2cccnc2)nc1SCC(=O)c1ccccc1 | 2.8 µg/mL (≈ 8.45 µM)
COc1cc2c(cc1OC)C(C)N(C(=O)c1ccc(C)o1)CC2 (configuration not stated) | > 47.3 µg/mL
Cc1cccc(N2CCN(C(=O)c3oc4ccc(Br)cc4c3C)CC2)c1C | 4.3 µg/mL (≈ 10.1 µM)
CCc1nc(SCC(=O)NC2CC2)c2c(C)c(C)sc2n1 | 2.5 µg/mL (≈ 7.78 µM)
CSc1ccccc1NC(=O)COc1ccccc1C | < 0.6 µg/mL
Nc1nc(SCC(=O)O)[nH]c(=O)c1NC(=O)c1ccco1 | > 46.5 µg/mL
O=C(Nc1cccc2ncccc12)c1ccccc1[N+](=O)[O-] | 36.6 µg/mL (≈ 125 µM)
CCN(Cc1ccccc1)C(=O)CC(=O)N(CC)Cc1ccccc1 | > 50.8 µg/mL
CC(CN1CCOCC1)OC(=O)Cc1ccccc1.Cl (configuration not stated) | 33.3 µg/mL
O=C(O/N=C1/CCCc2occc21)c1ccc(Cl)cc1Cl | < 0.7 µg/mL
CC(c1ccccc1)n1c(CO)nc2ccccc21 (configuration not stated) | 35.2 µg/mL (≈ 140 µM)
Cc1ccnc(NC(=O)CNC(=O)c2ccccc2)c1 | > 40.4 µg/mL
COc1ccc(C(=O)Nc2ccc(NC(=O)C3CCCCC3)nc2)cc1 | 0.4 µg/mL (≈ 1.13 µM)
CC(C)C(NC(=O)c1ccccc1)C(=O)NCCc1ccccc1 (configuration not stated) | 9.4 µg/mL (≈ 29 µM)
CN(CC(=O)Nc1ccc(Cl)cc1)C(=O)CCC1CCCC1 | 0.4 µg/mL (≈ 1.24 µM)
CC(=O)c1ccc(NC(=O)CCOc2cc(C)ccc2C)cc1 | 5 µg/mL (≈ 16.1 µM)
Cc1ccc(C)c(NC(=O)CCc2ccc(C)o2)c1 | 24.6 µg/mL (≈ 95.6 µM)
O=C(CN1CCN(Cc2ccccc2F)C1=O)NCC1CCCO1 (configuration not stated) | > 50.3 µg/mL
O=C(C#Cc1ccccc1)Nc1cccc(F)c1 | 8.7 µg/mL (≈ 36.4 µM)
N/C(=N\O)c1ccc(Cl)cc1Cl | 30 µg/mL (≈ 146 µM)
NS(=O)(=O)c1ccc(NC(=O)c2ccc3nccnc3c2)cc1 | 7.5 µg/mL (≈ 22.8 µM)
Cc1sc(NC(=O)c2cccnc2)nc1-c1ccccc1 | 1.1 µg/mL (≈ 3.72 µM)
CCN(CC)P(c1n(C)cc[n+]1C)N(CC)CC.[I-] | 46.9 µg/mL
O=C(CCCc1nc(-c2ccccc2)no1)NC1CCCC1 | > 44.9 µg/mL
COCCCNC(=O)c1ccc(C2SCC(=O)N2Cc2ccco2)cc1 (configuration not stated) | 52.1 µg/mL (≈ 139 µM)

Structure (SMILES) | solubility kinetic
Cc1ccc(NC(=O)c2cnccn2)cc1S(=O)(=O)N1CCCCCC1 | 5.4 µg/mL (≈ 14.4 µM)
Cc1cccc2c(N=O)c(O)n(CCc3ccccc3)c12 | 0.4 µg/mL (≈ 1.43 µM)
COc1ccc(COC(=O)Nc2c(SC)nsc2SC)cc1 | 1 µg/mL (≈ 2.81 µM)
O=C(O)c1ccc(/C=N/NC(=S)NCCN2CCOCC2)cc1 | > 50.5 µg/mL
Cl.Fc1ccc(CNC2CN3CCC2CC3)cc1 (configuration not stated) | > 46.1 µg/mL
CCCCOc1ncnc2c1[nH]c1ccc(C)cc12 | 0.6 µg/mL (≈ 2.35 µM)
Cc1ccc(CC2SC(N)=NC2=O)cc1 (configuration not stated) | > 33 µg/mL
COC(=O)C1=C(N)OC2=C(C(=O)CCC2)C1c1cccnc1 (configuration not stated) | 42.7 µg/mL (≈ 142 µM)
COc1ccc(C(=O)CC(=O)C(=O)Nc2ccccc2OC)cc1 | 16.2 µg/mL (≈ 49.5 µM)
COc1ccc(-c2nsc(SCC(=O)NCC3CCCO3)n2)cc1 (configuration not stated) | > 54.8 µg/mL
CC(=O)c1cccc(-n2c(CCC(=O)O)ccc2-c2ccc(C)cc2)c1 | > 52.1 µg/mL
Nc1cc(=O)[nH]c(SCC(=O)N2CCCC2)n1 | > 38.1 µg/mL
CC(C)(C)c1ccc(-c2noc(-c3ccc4c(c3)CCO4)n2)cc1 | 0.8 µg/mL (≈ 2.5 µM)
COc1cc2c(cc1OC)CC1(CCCCC1)N=C2.Cl | > 44.4 µg/mL
Cc1noc(C)c1S(=O)(=O)N1CCCC1C(=O)O (configuration not stated) | > 41.1 µg/mL
O=C1NC(=O)/C(=C/c2ccc(-c3cc(C(=O)O)ccc3Cl)o2)S1 | > 52.5 µg/mL
COc1cccc(CN(C)Cc2nc(C3CC3)no2)c1 | > 41 µg/mL
N/C(=N\OC(=O)Cc1ccc(-c2ccccc2)cc1)c1ccncc1 | 0.7 µg/mL (≈ 2.11 µM)
CN(c1ccccc1)S(=O)(=O)c1ccc(NC(=O)C2CC2)cc1 | 2.3 µg/mL (≈ 6.96 µM)
Cc1ccc(C23CC4CC(CC(C(=O)NC(C)C)(C4)C2)C3)cc1 | < 0.7 µg/mL
COc1ccc(C2=NOC(C(=O)Nc3cccc(O)c3)C2)cc1 (configuration not stated) | 22.8 µg/mL (≈ 73 µM)
CC(C)(C)C1CCC(OC(=O)CN2CCCCC2)CC1 (configuration not stated) | 2.4 µg/mL (≈ 8.53 µM)
